This is an account of results in US4029790A, “1-Benzoyl-2 or 4 [2-(4-phenyl-piperazino)-ethyl]-piperidines” (Centre European de Recherches Mauvernay, priority 1974, dated 1977).

The test system of experiment [1] is electrical stimulation of the upper laryngic nerve. The experiment can be described thus: Antitussive properties in the Cat (test of Domenjoz, electrical stimulation of the upper laryngic nerve). It counts as in vivo. The conditions noted are these: for inhibition in vivo at 10 mg/kg / inhibition in vivo at 20 mg/kg: Felis catus, intraduodenal, read-out: Antitussive activity, Mean (percentage of inhibition); for inhibition in vivo at 20 mg/kg: 20 mg/kg I.D. The procedure: The bronchospasmolytic and also antitussive activities of these compounds were investigated by means of the following tests:
2. Investigation of Antitussive Properties in the Cat
The test used was then of Domenjoz R.(Arch. Exp. Pathol. v. Pharmacol. 215, 1952).
The electrical stimulation of the upper laryngic nerve had the following characteristics: 2v, 6 Hz square waves of 5 msec - period of stimulation 10 to 20 seconds at intervals of 7 minutes 5 seconds. The activity of the product was evaluated as a percentage of inhibition.

Experiment [2] concerns Histaminic bronchospasm. The experiment can be described thus: Histaminic bronchospasm in the Guinea Pig (histamine aerosol technique). Format: in vivo. To be noted: for responders at 50 mg/kg: 50 mg/kg P.O., 45 minutes after treatment, 0.3% histamine aerosol; for ED50: read-out: Bronchospasmolytic activity ED50; for affinity for the bronchopulmonary system; activities (in words): summary of Table II; for responders at 25 mg/kg: * Dose used: 25 mg/kg P.O.

Setting [3] is: Cavia porcellus, po, 0.75 h, read-out: Bronchospasmolytic activity, % activity.
The mark [4] stands for this setting: Cavia porcellus, po, 0.75 h, P.O., linearisation method, ] [: 5% confidence limit of ED50.

Where two headings read alike, the source gives them in different places.

A word on the ED50: it is the midpoint of the dose-response relation. Take `O=C(c1ccc(Cl)cc1)N1CCCCC1CCN1CCN(c2ccc(F)cc2)CC1` (stereo not drawn) [Compound 2]: the inhibition in vivo at 10 mg/kg in experiment [1] (10 mg/kg I.D.) is 0%. For the same compound, in experiment [2] (setting [3]), the responders at 50 mg/kg was 100%. The ED50 in experiment [2] (setting [4]) is 25 mg/kg. The “affinity for the bronchopulmonary system; activities (in words)” value (“affinity for the bronchopulmonary system” below) in experiment [2] is “particularly marked”.

For `O=C(c1ccccc1)N1CCCCC1CCN1CCN(c2ccc(Cl)cc2)CC1` (stereo not drawn) [Compound 7], the inhibition in vivo at 20 mg/kg in experiment [1] worked out at 74%. The responders at 50 mg/kg in experiment [2] (setting [3]) was determined as 60%.

Regarding `O=C(c1ccc(Cl)cc1)N1CCCCC1CCN1CCN(c2cccc(Cl)c2)CC1` (stereo not drawn) [Compound 9], the responders at 50 mg/kg in experiment [2] (setting [3]) came to 80%. In addition, the median effective dose (ED50) in experiment [2] (setting [4]) came out at 13 mg/kg.

Turning to `O=C(c1ccc(F)cc1)N1CCCCC1CCN1CCN(c2ccc(F)cc2)CC1` (stereo not drawn) [Compound 4, 1-(4-fluoro)-benzoyl-2-{2-[4-(4-fluoro)phenyl]piperazinyl} ethyl piperidine], the inhibition in vivo at 10 mg/kg in experiment [1] (10 mg/kg I.D.) turned out to be 58.6 ± 19.2%. Also, the responders at 50 mg/kg in experiment [2] (setting [3]) came to 100%. Further, in experiment [2] (setting [4]), the 50% effective dose (ED50) is 5.7 mg/kg. For the same compound, the “affinity for the bronchopulmonary system” value in experiment [2] was “particularly marked”.

On to `COc1ccc2c(c1)C13CCCCC1C(C2)N(C)CC3` (stereo not drawn) [Dextrome-torphane, Dextrometorphane, reference compound], for which the inhibition in vivo at 10 mg/kg in experiment [1] turned out to be 76.2 ± 34%. Besides, the responders at 100 mg/kg in experiment [2] (setting [3]) was found to be 0%.

Consider `CN(C)CCOC(c1ccccc1)c1ccccc1` [Diphenyl-dramine, Diphenyldramine, reference compound], for which, in experiment [1], the inhibition in vivo at 10 mg/kg worked out at 65.3 ± 9.5%. In addition, in experiment [2] (Cavia porcellus, inhaled or nasal, 0.75 h, read-out: Bronchospasmolytic activity, % activity), the responders at 10 mg/kg was 93%. Moreover, the ED50 in experiment [2] (Cavia porcellus, po, 0.75 h) was determined as 4.5 mg/kg.

`O=C(c1ccc(Cl)cc1)N1CCC(CCN2CCN(c3ccc(Cl)cc3)CC2)CC1` [Compound 10, 1-(4-chloro)benzolyl-4-{2-[4-(4-chloro)phenyl] -piperazinyl} -ethyl piperidine]: in experiment [1], the inhibition in vivo at 20 mg/kg was 0%. Besides, the responders at 50 mg/kg in experiment [2] (setting [3]) was 100%.

With `O=C(c1ccccc1)N1CCCCC1CCN1CCN(c2ccc(F)cc2)CC1` (stereo not drawn) [Compound 1], the inhibition in vivo at 10 mg/kg in experiment [1] (10 mg/kg I.D.) is 73.7 ± 13.7%. The “antitussive properties (in words)” value in experiment [1] (summary of Table II) is listed as “interesting antitussive properties”. Further, in experiment [2] (setting [3]), the responders at 50 mg/kg came out at 60%.

With `O=C(c1ccc(F)cc1)N1CCC(CCN2CCN(c3ccc(Cl)cc3)CC2)CC1` [Compound 12], the inhibition in vivo at 20 mg/kg in experiment [1] was found to be 0%. In experiment [2] (setting [3]), the responders at 50 mg/kg is 70%. Further, the median effective dose (ED50) in experiment [2] (setting [4]) came to 30.9 mg/kg.

With `O=C(c1ccc(Cl)cc1)N1CCC(CCN2CCN(c3ccc(F)cc3)CC2)CC1` [Compound 13], the inhibition in vivo at 20 mg/kg in experiment [1] stood at 0%. Also, the responders at 25 mg/kg in experiment [2] (setting [3]) was 100%. In addition, the ED50 in experiment [2] (setting [4]) came out at 11.6 mg/kg. In addition, the “affinity for the bronchopulmonary system” value in experiment [2] is on record as “particularly marked”.

As for `O=C(c1ccc(F)cc1)N1CCC(CCN2CCN(c3ccc(F)cc3)CC2)CC1` [Compound 14], in experiment [1], the inhibition in vivo at 20 mg/kg was 44.7 ± 29.3%. Moreover, the responders at 25 mg/kg in experiment [2] (setting [3]) was 100%. Moreover, the ED50 in experiment [2] (setting [4]) came out at 0.94 mg/kg. Moreover, the “affinity for the bronchopulmonary system” value in experiment [2] is given as “particularly marked”.
